What was measured:
TTR [1] = experiment: TTR editing in HEK293_Cas9 cells transfected with dgRNAs (Table 4); assay type: cell-based, human; conditions: HEK293_Cas9 cells (constitutively express Spy Cas9) transfected with dgRNAs
Method in brief: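 Percent editing, taken from amplicon NGS as the fraction of all reads carrying insertions, deletions or substitutions, was measured 24, 48 or 72 h after delivery. Delivery used RNAiMAX lipoplexes of 25 nM each crRNA and trRNA into HEK293 cells stably expressing Spy Cas9.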

TTR [2] = experiment: TTR editing in HepG2 cells transfected with Spy Cas9 mRNA and dgRNAs (Table 6); assay type: cell-based, human; conditions: HepG2 cells co-transfected with Spy Cas9 mRNA (SEQ ID NO:2) and dgRNAs
Method in brief: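 Percent editing is the share of sequencing reads at the TTR target locus that carry insertions, deletions or substitutions, measured by Illumina amplicon sequencing aligned to hg38. Samples came from HepG2 cells lipofected first with 100 ng Cas9 mRNA and then with dual-guide RNA (25 nM crRNA/tracer), collected 24–72 h later.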

TTR [3] = experiment: TTR editing in primary human hepatocytes transfected with Spy Cas9 protein (RNP) loaded with dgRNAs (Table 8); assay type: cell-based; conditions: dgRNA transfected with Spy Cas9 protein (RNP)
Method in brief: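 Primary human hepatocytes were lipofected (RNAiMAX) with RNP of Spy Cas9 (10 nM) plus pre-annealed crRNA (10 nM) and trRNA (10 nM) and harvested 24, 48 or 72 h later. Target-site amplicons were sequenced on Illumina MiSeq and aligned to hg38; percent editing = reads with indels or substitutions over total reads.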

Sequence	Avg % Deletion (TTR [1]) [%]	Avg % Edit (TTR [1]) [%]	Avg % Insert (TTR [1]) [%]	Avg % Deletion (TTR [2]) [%]	Avg % Edit (TTR [2]) [%]	Avg % Insert (TTR [2]) [%]	Avg % Deletion (TTR [3]) [%]	Avg % Edit (TTR [3]) [%]	Avg % Insert (TTR [3]) [%]
GAAAGGCUGCUGAUGACACC (tested as dual guide RNA, chemistry not given here) [CR003352]	22.99	27.90	4.91	4.77	44.28	39.51	3.21	30.48	27.27
UCUAGAACUUUGACCAUCAG (tested as dual guide RNA, chemistry not given here) [CR003345]	16.01	35.02	19.00	4.45	10.58	6.12	7.91	28.90	21.00
GCAACUUACCCAGAGGCAAA (tested as dual guide RNA, chemistry not given here) [CR003356]	22.19	32.21	10.03	3.72	9.39	5.67	1.29	7.53	6.24
CCUCUGCAUGCUCAUGGAAU (tested as dual guide RNA, chemistry not given here) [CR003370]	29.73	34.22	4.49	3.62	28.51	24.88	1.26	20.06	18.80
AAAUAGACACCAAAUCUUAC (tested as dual guide RNA, chemistry not given here) [CR003366]	37.26	47.36	10.10	8.49	54.69	46.20	4.79	42.74	37.95
AGGCAGUCCUGCCAUCAAUG (tested as dual guide RNA, chemistry not given here) [CR003348]	13.21	35.53	22.32	21.40	38.44	17.04	9.44	23.18	13.74
ACACAAAUACCAGUCCAGCA (tested as dual guide RNA, chemistry not given here) [CR003339]	6.98	56.37	49.39	55.84	68.21	12.37	36.21	45.06	8.85
GCCGUGGUGGAAUAGGAGUA (tested as dual guide RNA, chemistry not given here) [CR003387]	16.92	24.68	7.75	0.12	1.39	1.27	0.11	1.79	1.68
AGUCCCUCAUUCCUUGGGAU (tested as dual guide RNA, chemistry not given here) [CR003392]	20.82	21.67	0.85	0.33	14.64	14.32	0.14	10.07	9.93
UGGACUGGUAUUUGUGUCUG (tested as dual guide RNA, chemistry not given here) [CR003340]	14.50	42.38	27.88	31.65	37.76	6.12	4.50	10.44	5.94
AAUAGGAGUAGGGGCUCAGC (tested as dual guide RNA, chemistry not given here) [CR003384]	16.00	17.45	1.45	0.25	3.37	3.12	0.17	3.56	3.39
CUCUGCAUGCUCAUGGAAUG (tested as dual guide RNA, chemistry not given here) [CR003369]	24.04	33.10	9.06	5.51	22.62	17.11	1.31	12.98	11.67
AGACACCAAAUCUUACUGGA (tested as dual guide RNA, chemistry not given here) [CR003367]	18.67	47.11	28.44	21.27	45.55	24.28	15.13	31.19	16.06
AAAGGCUGCUGAUGACACCU (tested as dual guide RNA, chemistry not given here) [CR003353]	21.32	25.03	3.71	3.68	60.40	56.71	2.16	61.54	59.38
UUUGACCAUCAGAGGACACU (tested as dual guide RNA, chemistry not given here) [CR003344]	29.54	33.87	4.32	3.62	33.43	29.81	4.48	35.45	30.97
AUGCAGCUCUCCAGACUCAC (tested as dual guide RNA, chemistry not given here) [CR003358]	4.14	5.44	1.29	7.27	35.93	28.66	5.67	31.62	25.95
CCUCCUCUGCCUUGCUGGAC (tested as dual guide RNA, chemistry not given here) [CR003336]	25.78	29.09	3.31	0.83	31.31	30.48	0.58	30.70	30.11

— US11795460B2, “Compositions and methods for TTR gene editing and treating ATTR amyloidosis” (Intellia Therapeutics, Inc., priority 2017, dated 2023)
